Laboratory results: patent US20230266302A1, “SYNTHESIS AND USE OF N-BENZYL SULFONAMIDES” (THE UNIVERSITY OF TULSA, priority 2020, published 2023)

Legend:
Assay in all cases: ATP level assay (CellTiter-Glo), percent of control
Format in all cases: cell-based
Details in all cases: two hour incubation
MCF7 (breast cancer) = system: MCF7 (breast cancer)
HDF (normal cells) = system: HDF (normal cells)
[1] = system: BxPC3 (pancreatic cancer)
SkBr3 (breast cancer) = system: SkBr3 (breast cancer)
HeLa (cervical cancer) = system: HeLa (cervical cancer)
H293 (kidney cancer) = system: H293 (kidney cancer)
MDA-MB (breast cancer) = system: MDA-MB (breast cancer)
NCI-H196 (lung cancer) = system: NCI-H196 (lung cancer)
[2] = system: MCF10A (non-cancerous breast)
T47D (breast cancer) = system: T47D (breast cancer)
PC3 (prostate cancer) = system: PC3 (prostate cancer)
[3] = compound 100 uM + 2DG (about 10-20 mM)
[4] = compound 100 uM + rotenone (approximately 1.25 μM)

SMILES: O=[N+]([O-])c1cccc(S(=O)(=O)NCc2c[nH]c3ccccc23)c1 [Compound 25, N-(1H-indol-3-ylmethyl)-3-nitrobenzenesulfonamide]
- activity at 100 µM (MCF7 (breast cancer); Homo sapiens, MCF7, 2 h, compound alone, 100 uM, control DMSO, read-out: POC (percent of control) MCF7): 112%
- POC (percent of control) MCF7 (MCF7 (breast cancer); [3]): 92.9% of control
- POC (percent of control) MCF7 (MCF7 (breast cancer); [4]): 104.2% of control
- activity at 100 µM (HDF (normal cells); 2 h, compound alone, 100 uM, control DMSO, read-out: POC (percent of control) HDF): 79.2%
- POC (percent of control) HDF (HDF (normal cells); [3]): 93.6% of control
- POC (percent of control) HDF (HDF (normal cells); [4]): 95.5% of control
- activity at 100 µM ([1]; Homo sapiens, BXPC-3, 2 h, compound alone, 100 uM, control DMSO, read-out: POC (percent of control) BxPC3): 85.1%
- POC (percent of control) BxPC3 [1, 3]: 71.5% of control
- POC (percent of control) BxPC3 [1, 4]: 78.2% of control
- activity at 100 µM (SkBr3 (breast cancer); Homo sapiens, SK-BR-3, 2 h, compound alone, 100 uM, control DMSO, read-out: POC (percent of control) SkBr3): 112%
- POC (percent of control) SkBr3 (SkBr3 (breast cancer); [3]): 88.2% of control
- POC (percent of control) SkBr3 (SkBr3 (breast cancer); [4]): 104.1% of control
- activity at 100 µM (HeLa (cervical cancer); Homo sapiens, HeLa, 2 h, compound alone, 100 uM, control DMSO, read-out: POC (percent of control) HeLa): 89.4%
- POC (percent of control) HeLa (HeLa (cervical cancer); [3]): 90.8% of control
- POC (percent of control) HeLa (HeLa (cervical cancer); [4]): 95.6% of control
- activity at 100 µM (H293 (kidney cancer); 2 h, compound alone, 100 uM, control DMSO, read-out: POC (percent of control) H293): 99.7%
- POC (percent of control) H293 (H293 (kidney cancer); [3]): 79.6% of control
- POC (percent of control) H293 (H293 (kidney cancer); [4]): 68.8% of control
- activity at 100 µM (MDA-MB (breast cancer); 2 h, compound alone, 100 uM, control DMSO, read-out: POC (percent of control) MDA-MB): 103%
- POC (percent of control) MDA-MB (MDA-MB (breast cancer); [3]): 86.2% of control
- POC (percent of control) MDA-MB (MDA-MB (breast cancer); [4]): 88.8% of control
- activity at 100 µM (NCI-H196 (lung cancer); NCI-H196, 2 h, compound alone, 100 uM, control DMSO, read-out: POC (percent of control) NCI-H196): 305%
- POC (percent of control) NCI-H196 (NCI-H196 (lung cancer); [3]): 92.9% of control
- POC (percent of control) NCI-H196 (NCI-H196 (lung cancer); [4]): 83% of control
- activity at 100 µM ([2]; Homo sapiens, MCF-10A, 2 h, compound alone, 100 uM, control DMSO, read-out: POC (percent of control) MCF10A): 95.7%
- POC (percent of control) MCF10A [2, 3]: 98.3% of control
- POC (percent of control) MCF10A [2, 4]: 80.4% of control
- activity at 100 µM (T47D (breast cancer); Homo sapiens, T47D, 2 h, compound alone, 100 uM, control DMSO, read-out: POC (percent of control) T47D): 94.4%
- POC (percent of control) T47D (T47D (breast cancer); [3]): 88.9% of control
- POC (percent of control) T47D (T47D (breast cancer); [4]): 86.7% of control
- activity at 100 µM (PC3 (prostate cancer); 2 h, compound alone, 100 uM, control DMSO, read-out: POC (percent of control) PC3): 60.2%
- POC (percent of control) PC3 (PC3 (prostate cancer); [3]): 96.8% of control
- POC (percent of control) PC3 (PC3 (prostate cancer); [4]): 80.1% of control
